Measured values as given in patent US10112939B2, “Tied-back benzamide derivatives as potent rock inhibitors” (Bristol-Myers Squibb Company, priority 2014, dated 2018).
Where two headings read alike, the source gives them in different places.

Columns and labels:
[1] = molecular target: ROCK2 (Homo sapiens (Human), UniProt O75116); assay: ROCK assay (peptide substrate phosphorylation, LABCHIP 3000 Reader); type: biochemical; conditions: 5 μM ATP, 1.5 μM peptide substrate
How it was run: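 Rho kinase variants started the reaction with compound present (DMSO <2%); after incubation, EDTA stop, and phosphorylated and non-phosphorylated peptide separated by microfluidic electrophoresis. Dose-response format, inhibition calculated at each concentration.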

[2] = system: neointimal formation in rats; conditions: balloon injury model; cited from earlier work
[3] = system: spontaneously hypertensive rat, renal hypertensive rat and deoxycortisone acetate salt hypertensive rat models; conditions: cited from earlier work
[4] = system: Dahl salt-sensitive rats; conditions: rat, in vivo; cited from earlier work
[5] = system: rat stroke model; conditions: in vivo; cited from earlier work
[6] = system: IL-1 beta-induced coronary stenosis; conditions: long term treatment; cited from earlier work

ROCK2, sequence (O75116 whole entry, species assumed): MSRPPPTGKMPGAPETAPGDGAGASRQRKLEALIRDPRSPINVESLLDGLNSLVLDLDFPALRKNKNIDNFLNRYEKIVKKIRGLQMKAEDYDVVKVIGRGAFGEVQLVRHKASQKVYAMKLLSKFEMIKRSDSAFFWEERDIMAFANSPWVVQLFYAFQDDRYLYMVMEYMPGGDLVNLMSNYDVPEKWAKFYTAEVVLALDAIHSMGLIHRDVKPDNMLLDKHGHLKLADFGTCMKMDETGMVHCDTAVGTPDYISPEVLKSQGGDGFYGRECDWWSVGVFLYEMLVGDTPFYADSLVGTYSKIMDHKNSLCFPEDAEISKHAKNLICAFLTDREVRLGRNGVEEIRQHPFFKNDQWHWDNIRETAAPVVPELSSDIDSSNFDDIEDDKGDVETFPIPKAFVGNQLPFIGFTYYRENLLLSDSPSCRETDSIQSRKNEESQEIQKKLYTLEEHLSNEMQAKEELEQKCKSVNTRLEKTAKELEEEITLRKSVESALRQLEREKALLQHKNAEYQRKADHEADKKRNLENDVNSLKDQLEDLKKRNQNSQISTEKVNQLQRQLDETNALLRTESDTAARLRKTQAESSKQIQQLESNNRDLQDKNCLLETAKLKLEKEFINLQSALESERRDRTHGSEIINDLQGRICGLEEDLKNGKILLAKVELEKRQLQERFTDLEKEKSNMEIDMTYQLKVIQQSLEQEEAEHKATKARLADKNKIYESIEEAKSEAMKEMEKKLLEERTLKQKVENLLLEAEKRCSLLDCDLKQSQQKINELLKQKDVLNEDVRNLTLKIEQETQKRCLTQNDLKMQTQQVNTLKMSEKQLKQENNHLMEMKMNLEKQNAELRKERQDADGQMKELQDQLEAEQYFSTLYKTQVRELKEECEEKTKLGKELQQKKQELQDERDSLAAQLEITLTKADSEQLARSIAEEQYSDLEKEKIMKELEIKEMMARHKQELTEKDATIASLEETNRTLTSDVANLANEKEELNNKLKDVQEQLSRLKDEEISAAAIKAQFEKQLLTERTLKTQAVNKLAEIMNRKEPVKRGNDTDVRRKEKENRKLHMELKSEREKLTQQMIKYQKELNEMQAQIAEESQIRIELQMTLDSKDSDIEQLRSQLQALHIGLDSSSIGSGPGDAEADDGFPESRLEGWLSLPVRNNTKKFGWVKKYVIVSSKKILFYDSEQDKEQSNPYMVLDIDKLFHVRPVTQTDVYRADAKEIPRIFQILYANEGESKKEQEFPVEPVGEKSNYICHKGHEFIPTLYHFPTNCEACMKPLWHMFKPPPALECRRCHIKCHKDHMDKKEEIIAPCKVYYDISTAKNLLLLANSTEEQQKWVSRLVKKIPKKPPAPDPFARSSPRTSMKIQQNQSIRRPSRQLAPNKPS

SMILES: CCNS(=O)(=O)c1cccc([C@H]2CCCN2C(=O)c2ccc(-c3cn[nH]c3)c(OC)c2)c1 [Example 112, N-Ethyl-3-[(2R)-1-[3-methoxy-4-(1H-pyrazol-4-yl)benzoyl]pyrrolidin-2-yl]benzene-1-sulfonamide]
- IC50 [1]: 15.2 nM

SMILES: C[C@@H](N)[C@H]1CC[C@H](C(=O)Nc2ccncc2)CC1 [Example Y-27632, Y-27632]
- neointimal formation [2]: inhibited neointimal formation
- blood pressure ([3]; control rats): only a minor effect on blood pressure
- blood pressure ([3]; three rat models of hypertension): significantly decrease blood pressure
- ventricular hypertrophy, fibrosis and function [4]: improve ventricular hypertrophy, fibrosis and function

SMILES: O=S(=O)(c1cccc2cnccc12)N1CCCNCC1 [fasudil]
- infarct size and neurologic deficit [5]: reduce both the infarct size and neurologic deficit
- coronary constrictive remodeling [6]: promote a regression of coronary constrictive remodeling
- coronary stenosis [6]: progressively reduce coronary stenosis
